This note sets out measurements from patent US9822164B2, “Labelling agent, and composition for labelling a protein, method for labelling a protein, and method for detecting a protein” (KOREA INSTITUTE OF SCIENCE AND TECHNOLOGY, priority 2014, dated 2017).

The target in one data set is T1, HSA (Homo sapiens, UniProt P02768).
T1 construct: purchased Sigma Aldrich
Put plainly: Labelling (photocrosslinking) of protein by UV irradiation, gel electrophoresis, fluorescence intensity. Format: binding. As to conditions: 5 minutes after UV irradiation, about 254 nm; FIG. 1b. As to the method: (§1) Proteins of BSA, HSA, peroxidase, and lysozyme are treated with the compounds synthesized or purchased in Example 1, and irradiated with UV at about 254 nm. Then, binding of the compound and the protein over UV irradiation time is examined by gel electrophoresis. A gel electrophoresis apparatus (Bio-Rad) and a small vertical gel electrophoresis apparatus are connected and used for gel electrophoresis. For experiment, a 12% SDS gel and a running buffer are directly prepared as follows and used. 12% SDS gel is prepared by mixing 7.9 ml of H2O, 6.5 ml of pH […] Tris-HCl buffer, 10 ml of 30% Acryl amide, 250 μl of 10% SDS gel, 250 μl of APS, and 10 μl of TMEDE. 1× running buffer is prepared by mixing 200 ml of 10×TGS buffer and 1800 ml of H2O.
(§2) Proteins of BSA, HAS, peroxidase, and lysozyme are purchased from Sigma Aldrich. Fluorescence intensity of the labeled protein is measured using BIO-RAD ChemiDoc, and Blue Epi and Green Epi are used as a light source, and 530 nm emission (28 nm bandwidth) and 650 nm emission (50 nm bandwidth) filters are used according to fluorescence wavelength.
(§3) Y axis of FIGS. 1a through 1d represents fluorescence intensity, indicating photocrosslinking degree of the compound and protein.

A further data set relates to peroxidase. Described as above. The class given is binding. As to conditions: 5 minutes after UV irradiation, about 254 nm; FIG. 1c. As to the method:
as §1, §2, §3

The nature of data set [1]: Maximum values of absorbance and fluorescence of the compounds in DMSO. Format: physicochemical. As to the method:
Experimental device, analyzer and reagents used in Examples and comparative experiments are the same as follows. FT-NMR spectroscopy is performed using Bruker Avance 400, and LC/MS analysis is performed using Thermo Dionex ultimate 3000/Velos pro on ion-trap mass spectrometer (ITMS). All reagents purchased from Aldrich are used without additional purification. Whatman filter papers having a diameter of 125 mm are used. Of derivatives used in experiments, 2-(2-Aminophenyl)-1H-benzimidazole) (ABI) is purchased from Aldrich, and NMR analysis and fluorescence/absorbance values are recorded by the method known in the art. […]

Data set [2] deals with BSA, HSA, peroxidase, and lysozyme. Put plainly: Protein labelling, results of FIGS. 1a to 1d taken together. The class given is binding. As to the method:
as §1, §2
Y axis of FIGS. 1a through 1d represents fluorescence intensity, indicating photocrosslinking degree of the compound and protein. […]

Another data set has as its target T2, lysozyme (Gallus gallus, UniProt P00698).
T2 construct: purchased Sigma Aldrich
Put plainly: Labelling (photocrosslinking) of protein by UV irradiation, gel electrophoresis, fluorescence intensity. Format: binding. As to conditions: 5 minutes after UV irradiation, about 254 nm; FIG. 1d. As to the method:
as §1, §2, §3

The target in another data set is T3, BSA (Bos taurus, UniProt P02769).
T3 construct: purchased Sigma Aldrich
T3 sequence (P02769 25-607): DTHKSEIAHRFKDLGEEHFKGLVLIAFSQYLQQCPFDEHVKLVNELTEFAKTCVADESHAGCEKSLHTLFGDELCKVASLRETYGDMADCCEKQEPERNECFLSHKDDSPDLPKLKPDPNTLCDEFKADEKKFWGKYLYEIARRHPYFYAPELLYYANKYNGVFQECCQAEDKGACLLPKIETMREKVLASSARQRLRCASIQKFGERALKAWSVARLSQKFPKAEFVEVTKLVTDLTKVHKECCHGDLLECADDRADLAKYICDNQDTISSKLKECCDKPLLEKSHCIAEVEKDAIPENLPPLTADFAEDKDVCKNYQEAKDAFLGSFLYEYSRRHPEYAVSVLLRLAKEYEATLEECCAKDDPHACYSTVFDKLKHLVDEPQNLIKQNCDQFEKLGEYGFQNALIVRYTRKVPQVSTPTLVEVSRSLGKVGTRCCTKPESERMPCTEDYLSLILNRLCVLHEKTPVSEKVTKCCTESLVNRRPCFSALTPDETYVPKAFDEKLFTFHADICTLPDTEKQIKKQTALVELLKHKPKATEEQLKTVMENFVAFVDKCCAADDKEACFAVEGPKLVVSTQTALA
Described as above. The class given is binding. The following applies: 5 minutes after UV irradiation, about 254 nm; FIG. 1a. As to the method:
as §1, §2, §3

T1 sequence (P02768 25-609): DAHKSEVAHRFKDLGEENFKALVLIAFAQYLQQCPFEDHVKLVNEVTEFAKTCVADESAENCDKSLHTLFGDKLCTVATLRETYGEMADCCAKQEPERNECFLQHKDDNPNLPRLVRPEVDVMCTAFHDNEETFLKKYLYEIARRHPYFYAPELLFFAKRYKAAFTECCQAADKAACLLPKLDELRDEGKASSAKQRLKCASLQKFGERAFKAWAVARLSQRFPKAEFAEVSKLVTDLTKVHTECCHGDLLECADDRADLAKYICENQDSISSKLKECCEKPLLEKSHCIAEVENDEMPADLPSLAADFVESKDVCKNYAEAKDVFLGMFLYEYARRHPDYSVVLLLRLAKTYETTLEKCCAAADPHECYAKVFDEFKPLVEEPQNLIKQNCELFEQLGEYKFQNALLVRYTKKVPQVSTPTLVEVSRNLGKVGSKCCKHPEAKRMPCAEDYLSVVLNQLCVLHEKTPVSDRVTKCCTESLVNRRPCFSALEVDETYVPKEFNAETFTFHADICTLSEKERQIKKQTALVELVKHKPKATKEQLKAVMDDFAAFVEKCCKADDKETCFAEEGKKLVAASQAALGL
T2 sequence (P00698 19-147): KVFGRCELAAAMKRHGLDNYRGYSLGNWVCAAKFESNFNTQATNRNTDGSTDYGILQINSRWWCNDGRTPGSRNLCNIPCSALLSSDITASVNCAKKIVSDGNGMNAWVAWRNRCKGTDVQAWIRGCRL

On to `Nc1ccccc1-c1nc2ccccc2[nH]1` [ABI, 2-(2-Aminophenyl)-1H-benzimidazole], for which the “Labeling of HSA (fluorescence intensity, photocrosslinking degree)” value (from here on “Labeling of HSA”) on HSA was “significant labeling”. The “Labeling of peroxidase (fluorescence intensity, photocrosslinking degree)” value (from here on “Labeling of peroxidase”) with peroxidase was “significant labeling”. Also, in data set [1], the “Absorbance (maximum value)” value is given as 360 nm and the “Fluorescence (maximum value)” value was 415 nm.

With `Oc1ccccc1-c1nc2ccccc2[nH]1` [HBI, 2-(2-hydroxyphenyl)benzimidazole], the “Photocrosslinking property, comparison among the compounds” value in data set [2] is on record as “highest photocrosslinking property”. The “Labeling of lysozyme (fluorescence intensity, photocrosslinking degree)” value at lysozyme was “significant labeling”. Also, at HSA, the “Labeling of HSA” value was “significant labeling”. Further, the “Labeling of BSA (fluorescence intensity, photocrosslinking degree)” value (“Labeling of BSA” for short) at BSA is “significant labeling”. The “Labeling of peroxidase” value with peroxidase was “significant labeling”. Moreover, in data set [1], the “Absorbance (maximum value)” value amounted to 320 nm and the “Fluorescence (maximum value)” value came out at 463 nm.

For `Oc1ccccc1-c1nc2ccccc2s1` [HBT, 2-(2-hydroxyphenyl)benzothiazole], in data set [1], the “Absorbance (maximum value)” value turned out to be 350 nm and the “Fluorescence (maximum value)” value was determined as 515 nm.

On to `CCN(CC)c1ccc2nc(-c3ccccc3O)[nH]c2c1` [HDBI, 2-(2-hydroxyphenyl)-5-(diethylamino)benzimidazole], for which the “Labeling of lysozyme (fluorescence intensity, photocrosslinking degree)” value at lysozyme was “significant labeling”. Further, the “Labeling of HSA” value on HSA is recorded as “significant labeling”. Further, the “Labeling of BSA” value on BSA was “significant labeling”. Further, the “Labeling of peroxidase” value in the data set with peroxidase is on record as “significant labeling”. In data set [1], the “Absorbance (maximum value)” value came out at 360 nm and the “Fluorescence (maximum value)” value amounted to 448 nm.

With `Oc1ccccc1-c1nc2ccccc2o1` [HBO, 2-(2-hydroxyphenyl)benzoxazole], the “Labeling of BSA” value at BSA is given as “significant labeling”. Moreover, in data set [1], the “Absorbance (maximum value)” value is 380 nm and the “Fluorescence (maximum value)” value amounted to 480 nm.
